According to patent US20250339462A1, “CANCER TREATMENT USING ULTRA-HIGH CONCENTRATION GASEOUS NITRIC OXIDE AND A CHECKPOINT INHIBITOR” (Beyond Air, Inc., priority 2022, published 2025):

How the values were obtained:
[1] = system: 4T1 tumor-bearing mice; test: 4T1 breast cancer model, UNO/Anti-PD-1 Single Dose Study; assay type: in vivo, mouse; details: single-dose of UNO alone 50,000 ppm 10 min (FIG. 12A)
Procedure: Preparation of 4T1 cells: Cancer cell suspension, in Hanks' Balanced Salt Solution (HBSS) (Biological Industries, Israel), at a concentration of 5.0×10^6 cells/ml was freshly prepared on the day of the cancer model induction. Cells were grown to a 70-80% confluency and harvested using trypsin. The cells were centrifuged at 1,200 revolutions per minute (rpm)—241 G for 8 minutes, then the pellet was re-suspended in 1 ml of HBSS. The cells were counted using an automated cell counter and a suspension with a concentration of 5.0×10^6 cells/ml was prepared. Cell viability must be above 90% before cell inoculation to the mice, otherwise new cells will need to be prepared. […]
UNO and N2 treatment—On the day of treatment, mice were anesthetized by an intraperitoneal (i.p.) injection of 100 mg/kg of ketamine and 10 mg/kg of xylazine hydrochloride solution. […] After treatment, all mice were warmed and closely monitored until complete recovery was observed. […]
Anti-mPD-1 dosing started one day after UNO treatment. […] The primary tumor volume was assessed using a digital caliper using a standard formula. In addition, mice survival was evaluated. Mice were routinely weighed and monitored for health conditions using mouse distress scoring. Mice reaching a tumor volume of ≥1500 mm3 and/or a score of 12 were humanely euthanized, and the time of death was recorded.

[2] = system: AH-1+CD8+ T-cells (tumor antigen-specific CD8+ T-cells); test: Flow cytometry for tumor antigen-specific CD8+ T-cells in blood of CT26 tumor-bearing mice; assay type: in vivo, mouse; details: day 7 after UNO treatment
Procedure: Preparation of cancer cells for injection—Mouse colon carcinoma CT26.WT cells (ATCC, Cat no. CRL-2638) suspended in Hanks' Balanced Salt Solution (HBSS) (Biological Industries, Israel), at a concentration of 5.0×10^6 cells/ml, were freshly prepared on the day of cancer model induction. Cells were grown to 70% confluency and were harvested using trypsin (Biological Industries, Israel), and counted using a cell counter device. The cells were then centrifuged at 1,200 rpm (241×g) for 8 minutes, and the pellet was re-suspended in ice cold HBSS at 5.0×10^6 in 1 ml (5.0×10^5 cells in 100 μl solution). Cell viability was >90% as determined by trypan blue staining prior to inoculation to mice. At the point of inoculation, cells were at passage 8 at most. […]
UNO treatment—On the day of treatment, mice were anesthetized by an intra-peritoneal (i.p.) injection of 100 mg/kg ketamine and 10 mg/kg of xylazine hydrochloride solution. […] After treatment, all mice were warmed and closely monitored until complete recovery was observed. […]
Flow cytometry for tumor antigen-specific CD8+ T-cells—On day 7 after the UNO treatment, 100 μl of peripheral blood was collected by submandibular bleeding from each mouse into tubes containing 0.5M EDTA PH 8.0. […] Data was analyzed using the FlowJo software.

For `[N]=O` [UNO, nitric oxide], the “Primary tumors smaller compared to anti-mPD-1 alone” value [1] was 13.2%, the “Systemic levels of AH-1+CD8+ T-cells vs untreated or naive mice” value [2] was “higher” and the “AH-1+CD8+ T-cells in the blood” value ([2]; UNO 100,000 ppm 5 min, anti-mCTLA-4 5 mg/kg i.p. twice) was “detected in the blood of all mice”.
